Laboratory results from paper PMC12658050 (Scientific Reports, 2025).

Target: cyclin B1 (CCNB1) (Homo sapiens, UniProt P14635)
Test: SPR
Format: binding

Sequence of cyclin B1 (CCNB1) (P14635 whole entry): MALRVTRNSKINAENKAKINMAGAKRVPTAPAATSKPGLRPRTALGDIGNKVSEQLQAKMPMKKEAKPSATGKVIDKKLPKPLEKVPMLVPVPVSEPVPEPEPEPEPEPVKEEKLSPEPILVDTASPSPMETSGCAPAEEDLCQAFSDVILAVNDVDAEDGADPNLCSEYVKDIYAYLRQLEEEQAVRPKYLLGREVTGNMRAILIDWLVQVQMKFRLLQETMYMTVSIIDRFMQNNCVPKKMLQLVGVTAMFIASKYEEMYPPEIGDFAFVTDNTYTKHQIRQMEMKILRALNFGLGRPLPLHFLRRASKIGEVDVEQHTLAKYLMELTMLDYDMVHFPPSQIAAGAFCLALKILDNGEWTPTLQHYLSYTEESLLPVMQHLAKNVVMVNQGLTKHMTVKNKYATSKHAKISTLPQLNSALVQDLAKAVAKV

Question: How did the Kd turn out when `O=c1cc(-c2ccc(O)c(O)c2)oc2cc(O)cc(O)c12` [Luteolin, 3′,4′,5,7-tetrahydroxyflavone] was run?
Answer: ~36.7 µM
